In patent publication US20100063035A1, “CARBONIC ANHYDRASE INHIBITORS DERIVATIVES” (Nicox S.A., priority 2006, published 2010):
pKi: −log10 of the molar value.

Experiments:
hCA I = hCA I (Homo sapiens, UniProt P00915); assay: Carbonic anhydrase inhibition, stopped-flow CO2 hydration assay, isoenzyme CA I
Method: (§1) An SX.18MV-R Applied Photophysics stopped flow instrument was used for assaying the CA CO2 hydration activity. […] The buffer solution was constituted by 10 mM HEPES, 0.1 M Na2SO4, and TRIZMA hydrochloride 0.01 M, adjusting the pH solution at 7.5 with NaOH (0.1 M). […] Satured CO2 solution in bidistilled water at 20° C. was used as substrate.
(§2) Stock solutions of inhibitor (1 mM) were prepared with buffer solution with 10-20% (v/v) DMSO, and dilutions up to 0.1 nM. To allow for the formation of the E-1 complex, inhibitor and enzyme solutions were preincubated during 15 min at room temperature prior to assay. Enzyme concentration was 0.1 μM for CA I and II, 10 μM for CA IV. The human CA I and CA II are commercially available, whereas hCA IV (tumor) is cloned isoform.
Each experiment was done in triplicate.

hCA II = hCA II (Homo sapiens, UniProt P00918); assay: Carbonic anhydrase inhibition, stopped-flow CO2 hydration assay, isoenzyme CA II
Method: as §1, §2
Each experiment was done in triplicate.

hCA IV = hCA IV (Homo sapiens, UniProt P22748); assay: Carbonic anhydrase inhibition, stopped-flow CO2 hydration assay, isoenzyme CA IV
Sequence of hCA IV (P22748 19-284 limits assumed): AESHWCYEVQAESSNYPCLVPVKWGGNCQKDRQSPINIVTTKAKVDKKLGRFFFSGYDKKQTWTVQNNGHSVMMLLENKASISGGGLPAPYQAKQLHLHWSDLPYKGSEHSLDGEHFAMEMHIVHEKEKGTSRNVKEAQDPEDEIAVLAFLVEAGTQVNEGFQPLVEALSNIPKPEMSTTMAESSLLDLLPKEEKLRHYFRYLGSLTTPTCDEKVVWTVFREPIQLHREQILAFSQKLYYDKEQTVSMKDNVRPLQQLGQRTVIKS
Method: as §1, §2
Each experiment was done in triplicate.

Sequence of hCA I (P00915 whole entry): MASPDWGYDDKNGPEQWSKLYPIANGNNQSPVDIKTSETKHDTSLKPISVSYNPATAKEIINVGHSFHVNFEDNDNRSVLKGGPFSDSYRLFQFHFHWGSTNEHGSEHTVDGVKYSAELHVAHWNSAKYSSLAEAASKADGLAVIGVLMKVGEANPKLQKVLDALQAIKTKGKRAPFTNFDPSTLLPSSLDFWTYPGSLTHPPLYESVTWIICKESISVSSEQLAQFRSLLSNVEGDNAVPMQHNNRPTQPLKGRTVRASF

pKi (hCA I) | pKi (hCA II) | pKi (hCA IV) | Structure (SMILES)
4.37 | 6.05 | 6.39 | CCN[C@H]1CC(C)S(=O)(=O)c2sc(S(=O)(=O)NC(=O)OCCCCO[N+](=O)[O-])cc21 (stereo partly drawn) [Ex. 7, (4S-trans)-4-(ethylamino)-5,6-dihydro-6-methyl-4H-thieno[2,3-b]thiopyran-2-sulfonylamido-N-(4-(nitrooxy)butyloxycarbonyl)-7,7-dioxide]
4.82 | 6.60 | 5.47 | CCN[C@H]1CC(C)S(=O)(=O)c2sc(S(=O)(=O)NC(=O)CCCCCO[N+](=O)[O-])cc21 (stereo partly drawn) [Ex. 1, (4S-trans)-4-(ethylamino)-5,6-dihydro-6-methyl-4H-thieno[2,3-b]thiopyran-2-sulfonylamido-N((6-nitrooxy)hexanoyl)-7,7-dioxide]
